Results as given in the supplement of paper PMC10307832.

Columns and labels:
Test in all cases: relative viability (nuclei count vs DMSO), 5 days (fraction); higher = more cells survive
XMD14-99 + Bortezomib = compound: CN1CCN(CC1)C2=CC(=C(C=C2)NC3=NC(=C(S3)C(=O)C4=C(C=CC=C4Cl)Cl)N)OC [XMD14-99] + CC(C)C[C@H](NC(=O)[C@H](Cc1ccccc1)NC(=O)c1cnccn1)B(O)O [Bortezomib] (partner 0.002 µM)
Procedure, shortened: (§1)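 Cells from lung cancer lines were seeded into 1536-well plates and, one day later, dosed by pin tool. Treatments were either a single drug or a fixed dose of an anchor drug with five library-drug doses (not always all listed) in √10 steps. After 5 days, nuclei were stained in a one-step fixation (final 0.05% Triton X-100, 1% formaldehyde, 1 ug/ml Hoechst) and counted on 4× images, and relative viability is the treated-to-vehicle nuclei ratio, as the median of duplicate plates.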

XMD14-99 + Dasatinib = compound: CN1CCN(CC1)C2=CC(=C(C=C2)NC3=NC(=C(S3)C(=O)C4=C(C=CC=C4Cl)Cl)N)OC [XMD14-99] + Cc1nc(Nc2ncc(C(=O)Nc3c(C)cccc3Cl)s2)cc(N2CCN(CCO)CC2)n1 [Dasatinib] (partner 0.075 µM)
Procedure, shortened: as §1

AZD1208 + Trametinib = compound: N[C@@H]1CCCN(c2c(/C=C3\SC(=O)NC3=O)cccc2-c2ccccc2)C1 [AZD1208] + CC(=O)Nc1cccc(-n2c(=O)n(C3CC3)c(=O)c3c(Nc4ccc(I)cc4F)n(C)c(=O)c(C)c32)c1 [Trametinib] (partner 0.02 µM)
Procedure, shortened: as §1

AZD1208 + Foretinib = compound: N[C@@H]1CCCN(c2c(/C=C3\SC(=O)NC3=O)cccc2-c2ccccc2)C1 [AZD1208] + COc1cc2c(Oc3ccc(NC(=O)C4(C(=O)Nc5ccc(F)cc5)CC4)cc3F)ccnc2cc1OCCCN1CCOCC1 [Foretinib] (partner 0.25 µM)
Procedure, shortened: as §1

Cell Line	relative viability (XMD14-99 + Bortezomib; first compound 0.08 µM)	relative viability (XMD14-99 + Bortezomib; first compound 0.8 µM)	relative viability (XMD14-99 + Bortezomib; first compound 2.53 µM)	relative viability (XMD14-99 + Bortezomib; first compound 8 µM)	relative viability (XMD14-99 + Dasatinib; first compound 0.08 µM)	relative viability (XMD14-99 + Dasatinib; first compound 0.8 µM)	relative viability (XMD14-99 + Dasatinib; first compound 2.53 µM)	relative viability (XMD14-99 + Dasatinib; first compound 8 µM)	relative viability (AZD1208 + Trametinib; first compound 0.08 µM)	relative viability (AZD1208 + Trametinib; first compound 0.253 µM)	relative viability (AZD1208 + Trametinib; first compound 0.8 µM)	relative viability (AZD1208 + Trametinib; first compound 2.53 µM)	relative viability (AZD1208 + Trametinib; first compound 8 µM)	relative viability (AZD1208 + Foretinib; first compound 0.08 µM)	relative viability (AZD1208 + Foretinib; first compound 0.253 µM)	relative viability (AZD1208 + Foretinib; first compound 0.8 µM)	relative viability (AZD1208 + Foretinib; first compound 2.53 µM)	relative viability (AZD1208 + Foretinib; first compound 8 µM)
NCI-H2085	1.13	1.03	0.954	0.745	0.267	0.261	0.273	0.241	0.55	0.475	0.558	0.446	0.531	0.965	0.97	1.23	0.886	0.748
COR-L 105	0.841	0.805	0.614	0.473	0.345	0.388	0.255	0.281	0.435	0.366	0.408	0.625	0.378	0.849	1.09	1.05		1
SK-LU-1	1.43	1.42	1.03	0.943	0.182	0.204	0.181	0.163	0.46	0.531	0.446	0.491	0.585	0.794	0.917	0.8	0.721	0.661
LXF-289	1.04	0.978	0.945	0.841	0.238	0.173	0.208	0.204	0.678	0.629	0.673	0.694	0.747	0.978	1.03	0.996	0.962	1.03
PC-3 [JPC-3]	0.901	0.832	0.832	0.723	0.915	0.972	0.99	0.907	0.732	0.825	0.688	0.711	0.723	1.11	1.06	1.14	1.13	1.04
NCI-H661	0.708	0.669	0.793	0.674	0.976	0.86	0.828	0.627	0.549	0.565	0.544	0.543	0.514	0.979	1.15	1.04	0.994	0.951
NCI-H1666	0.872	0.782	0.825	0.629	0.826	0.803	0.743	0.59	0.764	0.907	0.687	0.667	0.725	0.906	1	0.953	0.954	0.975
NCI-H2087	0.85	0.705	0.709	0.45	0.739	0.714	0.55	0.305	0.219	0.167	0.159	0.227	0.193	1.17	1.26	0.89	0.977	0.988
NCI-H1734	0.873	0.847	0.822	0.707	0.394	0.448	0.481	0.423	0.659	0.583	0.535	0.525	0.434	0.773	0.814	0.738	0.755	0.56
NCI-H2228	1.17	0.974	0.871	0.337	0.376	0.451	0.405	0.148	0.578	0.669	0.36	0.525	0.343	0.78	0.809	0.635	0.842	0.761
EMC-BAC-2	0.989	1.08	0.995	0.923	0.311	0.334	0.334	0.286	0.852	0.83	0.777	0.806	0.702	1.01	1.04	1	1.02	0.727
NCI-H2009	1.05	0.968	0.919	0.682	0.263	0.294	0.261	0.164	0.264	0.249	0.256	0.224	0.207	1.23	1.2	1.14	1.26	1.16
NCI-H596	0.962	1.07	1.07	0.797	0.597	0.604	0.572	0.562	0.759	0.905	0.79	0.654	0.446	0.882	0.912	0.806	0.865	0.673
NCI-H650	0.97	0.847	0.724	0.649	0.467	0.422	0.451	0.356	0.852	0.904	1.1	0.93	0.743	1.03	1.03	0.977	0.9	0.829
SW 1573	1.09	0.868	0.932	0.936	0.401	0.42	0.52	0.325	0.433	0.438	0.44	0.419	0.317	0.709	0.872	0.837	0.573	0.653
ChaGo-K-1	1.06	1.02	0.964	0.92	0.564	0.6	0.51	0.483	0.884	0.905	0.78	0.88	0.806	0.855	0.903	0.808	0.875	0.73
NCI-H1650	0.248	0.221	0.187	0.168	0.335	0.289	0.316	0.2	0.575	0.667	0.536	0.517	0.537	1.08	0.993	1.17	1.05	1.1
NCI-H2023	0.931	0.945	0.83	0.645	0.536	0.607	0.739	0.404	0.601	0.55	0.416	0.506	0.394	0.811	0.462	0.795	0.805	0.634

Cell Line	relative viability (XMD14-99 + Bortezomib; first compound 0.08 µM)	relative viability (XMD14-99 + Bortezomib; first compound 0.8 µM)	relative viability (XMD14-99 + Bortezomib; first compound 2.53 µM)	relative viability (XMD14-99 + Bortezomib; first compound 8 µM)	relative viability (XMD14-99 + Dasatinib; first compound 0.08 µM)	relative viability (XMD14-99 + Dasatinib; first compound 0.8 µM)	relative viability (XMD14-99 + Dasatinib; first compound 2.53 µM)	relative viability (XMD14-99 + Dasatinib; first compound 8 µM)	relative viability (AZD1208 + Trametinib; first compound 0.08 µM)	relative viability (AZD1208 + Trametinib; first compound 0.253 µM)	relative viability (AZD1208 + Trametinib; first compound 0.8 µM)	relative viability (AZD1208 + Trametinib; first compound 2.53 µM)	relative viability (AZD1208 + Trametinib; first compound 8 µM)	relative viability (AZD1208 + Foretinib; first compound 0.08 µM)	relative viability (AZD1208 + Foretinib; first compound 0.253 µM)	relative viability (AZD1208 + Foretinib; first compound 0.8 µM)	relative viability (AZD1208 + Foretinib; first compound 2.53 µM)	relative viability (AZD1208 + Foretinib; first compound 8 µM)
LOU-NH91	0.498	0.416	0.451	0.447	0.591	0.584	0.541	0.472	0.785	0.786	0.759	0.825	0.728	0.943	0.876	0.874	0.93	0.909
NCI-H3122	0.965	0.948	0.913	0.692	0.81	0.745	0.754	0.503	0.201	0.221	0.192	0.203	0.165	0.991	1.05	0.924	1.08	0.945
LCLC-97TM1	0.801	0.629	0.625	0.33	0.837	0.766	0.73	0.559	0.21	0.172	0.137	0.183	0.162	0.914	0.945	1.03	0.891	0.8
NCI-H647	0.914	1.04	0.928	0.745	0.12	0.216	0.202	0.167	0.383	0.503	0.567	0.471	0.358	1.07	1.25	1.04	1.16	0.897
NCI-H838	0.826	0.828	0.674	0.491	0.303	0.324	0.245	0.216	0.482	0.629	0.448	0.476	0.457	1.03	1	0.939	1.02	0.946
H3255	0.729	0.895	0.532	0.297	0.437	0.496	0.347	0.249	0.537	0.616	0.636	0.624	0.519	0.919	0.867	0.65	0.954	0.932
NCI-H1437	0.519	0.408	0.323	0.287	0.437	0.457	0.35	0.234	0.423	0.597	0.358	0.419	0.408	1.31	1.17	1.36	1.42	1.42
LU99A	1.17	1.06	1.11	0.956	0.655	0.526	0.464	0.305	0.574	0.575	0.515	0.508	0.446	0.707	0.882	0.782	0.82	0.611
HCC-827	1.12	0.994	0.976	0.802	0.322	0.281	0.309	0.256	0.557	0.516	0.536	0.524	0.398	1.14	1.1	1.05	1	1.03
HCC-366	1.04	1.05	1.03	0.884	0.596	0.609	0.603	0.528	0.328	0.327	0.297	0.286	0.221	0.903	0.985	0.843	0.949	0.899
BEN	0.88	0.901	0.924	0.531	0.29	0.36	0.25	0.244	0.843	0.754	0.636	0.768	0.576	0.609	0.602	0.47	0.571	0.459
NCI-H2347	1.22	0.691	0.981	0.553	0.284	0.308	0.352	0.204	0.316	0.27	0.257	0.264	0.26	0.867	0.671	0.987	0.917	0.742
201T	1.11	1.08	1.03	1.03	0.593	0.618	0.546	0.523	0.749	0.716	0.721	0.725	0.732	1.06	1.12	1.07	1.06	1
NCI-H520	0.622	0.604	0.425	0.279	0.171	0.21	0.176	0.169	0.633	0.678	0.279	0.55	0.502	0.746	0.754	0.656	0.612	0.396
NCI-H727	0.895	0.827	0.625	0.575	0.322	0.273	0.309	0.23	0.413	0.325	0.352	0.395	0.39	0.843	0.938	0.737	0.533	0.781
HCC-15	1.04	0.999	0.896	0.769	0.601	0.65	0.548	0.431	0.381	0.338	0.326	0.312	0.296	0.956	0.994	0.876	0.88	0.855
LCLC-103H	0.991	1.08	1.07	0.995	0.383	0.582	0.472	0.442	0.63	0.651	0.683	0.686	0.681	0.771	0.665	0.56	0.558	0.485
